Experiment: xn = mol fraction of the nth substance listed
Conditions: 101 kPa, Liquid, Vibrating tube method

C=C[Si]1(C)O[Si](C)(C=C)O[Si](C)(C=C)O[Si](C)(C=C)O1 (stereo not given) [2,4,6,8-tetramethyl-2,4,6,8-tetravinylcycloterasiloxane] + CCc1ccccc1
mass density [kg/m3]
Conditions	288.15 K	298.15 K	308.15 K	318.15 K	328.15 K
x1 = 0.0501	887.7	878.79	869.83	860.83	851.79
x1 = 0.1045	902.53	893.47	884.37	875.24	866.11
x1 = 0.1504	913.16	904	894.77	885.58	876.37
x1 = 0.2005	923.2	913.94	904.59	895.29	885.99
x1 = 0.2502	931.85	922.49	913.05	903.69	894.31
x1 = 0.3023	939.76	930.31	920.8	911.36	901.91
x1 = 0.3443	945.44	935.9	926.4	916.84	907.26
x1 = 0.3988	952.02	942.4	932.8	923.14	913.48
x1 = 0.4491	957.43	947.75	938.01	928.31	918.61
x1 = 0.499	962.24	952.49	942.68	932.88	923.08
x1 = 0.5497	966.67	956.86	946.99	937.14	927.3
x1 = 0.5979	970.47	960.6	950.7	940.8	930.9
x1 = 0.6498	974.27	964.35	954.39	944.46	934.51
x1 = 0.6946	977.23	967.27	957.29	947.3	937.32
x1 = 0.7486	980.54	970.52	960.48	950.44	940.38
x1 = 0.7994	983.4	973.34	963.28	953.21	943.13
x1 = 0.8489	985.97	975.86	965.78	955.67	945.56
x1 = 0.9467	990.55	980.33	970.21	960.03	949.84
x1 = 1	992.74	982.54	972.34	962.14	951.94

C=C[Si]1(C)O[Si](C)(C=C)O[Si](C)(C=C)O[Si](C)(C=C)O1 (stereo not given) [2,4,6,8-tetramethyl-2,4,6,8-tetravinylcycloterasiloxane] + Cc1ccc(C)cc1
mass density [kg/m3]
Conditions	288.15 K	298.15 K	308.15 K	318.15 K	328.15 K
x1 = 0.0501	882.57	873.71	864.79	855.81	846.77
x1 = 0.1045	898.18	889.15	879.99	870.82	861.58
x1 = 0.1528	909.95	900.78	891.46	882.13	872.74
x1 = 0.2005	919.97	910.61	901.17	891.84	882.31
x1 = 0.25	929.05	919.68	910.08	900.53	890.92
x1 = 0.3017	937.34	927.86	918.16	908.52	898.83
x1 = 0.3444	943.41	933.87	924.09	914.37	904.6
x1 = 0.3985	950.18	940.53	930.74	920.97	911.16
x1 = 0.4489	955.85	946.14	936.28	926.45	916.57
x1 = 0.4989	960.92	951.15	941.23	931.34	921.41
x1 = 0.5495	965.55	955.72	945.76	935.82	925.84
x1 = 0.5985	969.61	959.72	949.73	939.75	929.74
x1 = 0.649	973.48	963.54	953.51	943.48	933.43
x1 = 0.6941	976.62	966.59	956.55	946.5	936.42
x1 = 0.7484	980.08	970.08	959.96	949.86	939.75
x1 = 0.7992	983.04	972.97	962.87	952.74	942.62
x1 = 0.8375	985.13	975.04	964.91	954.76	944.62
x1 = 0.9462	990.42	980.26	970.11	959.92	949.73
x1 = 1	992.74	982.54	972.34	962.14	951.94

C=C[Si]1(C)O[Si](C)(C=C)O[Si](C)(C=C)O[Si](C)(C=C)O1 (stereo not given) [2,4,6,8-tetramethyl-2,4,6,8-tetravinylcycloterasiloxane] + Cc1cccc(C)c1
mass density [kg/m3]
Conditions	288.15 K	298.15 K	308.15 K	318.15 K	328.15 K
x1 = 0.05	885.05	876.18	867.36	858.49	849.53
x1 = 0.1062	900.56	891.58	882.48	873.4	864.24
x1 = 0.1505	910.91	901.78	892.55	883.33	874.04
x1 = 0.2005	921.17	911.87	902.51	893.18	883.77
x1 = 0.2501	930.07	920.57	911.13	901.66	892.14
x1 = 0.3023	938.25	928.62	919.04	909.46	899.85
x1 = 0.3442	944.08	934.35	924.72	915.05	905.37
x1 = 0.3985	950.83	941.02	931.29	921.55	911.8
x1 = 0.4491	956.41	946.51	936.74	926.91	917.12
x1 = 0.499	961.37	951.41	941.59	931.69	921.85
x1 = 0.5495	965.9	955.89	946	936.07	926.17
x1 = 0.5981	969.84	959.8	949.86	939.92	929.94
x1 = 0.6498	973.72	963.58	953.57	943.62	933.58
x1 = 0.6946	976.79	966.61	956.57	946.59	936.5
x1 = 0.7483	980.15	969.99	959.9	949.87	939.74
x1 = 0.7983	983.05	972.9	962.78	952.69	942.58
x1 = 0.8489	985.74	975.61	965.47	955.35	945.21
x1 = 0.9463	990.44	980.3	970.11	959.94	949.75
x1 = 1	992.74	982.54	972.34	962.14	951.94

C=C[Si]1(C)O[Si](C)(C=C)O[Si](C)(C=C)O[Si](C)(C=C)O1 (stereo not given) [2,4,6,8-tetramethyl-2,4,6,8-tetravinylcycloterasiloxane] + Cc1ccccc1C
mass density [kg/m3]
Conditions	288.15 K	298.15 K	308.15 K	318.15 K	328.15 K
x1 = 0.0501	899.27	890.61	882.01	873.28	864.53
x1 = 0.1045	912.95	904.03	895.21	886.26	877.4
x1 = 0.1503	922.61	913.54	904.57	895.48	886.45
x1 = 0.2004	931.72	922.5	913.37	904.14	894.98
x1 = 0.2501	939.54	930.19	920.94	911.57	902.32
x1 = 0.3022	946.69	937.18	927.81	918.32	909.02
x1 = 0.3443	951.7	942.14	932.7	923.13	913.69
x1 = 0.3987	957.55	947.88	938.35	928.69	919.16
x1 = 0.4487	962.3	952.55	942.93	933.19	923.59
x1 = 0.499	966.62	956.77	947.08	937.26	927.63
x1 = 0.549	970.42	960.52	950.76	940.89	931.18
x1 = 0.598	973.72	963.78	954.02	944.1	934.32
x1 = 0.6483	976.93	966.95	957.08	947.12	937.26
x1 = 0.6945	979.61	969.55	959.65	949.64	939.74
x1 = 0.7483	982.42	972.33	962.38	952.33	942.34
x1 = 0.7987	984.81	974.7	964.71	954.64	944.57
x1 = 0.8489	987.06	976.91	966.88	956.77	946.68
x1 = 0.9426	990.76	980.56	970.47	960.3	950.08
x1 = 1	992.74	982.54	972.34	962.14	951.94
